Measurements taken from patent US20070099826A1, “Treatment of diseases associated with the egr-1 enhancer element” (priority 2003, published 2007).

Assays:
APO A1 promoter [1] = test: APO A1 promoter activity, Hep G2 cells permanently transfected with pA1.474-Luc; format: cell-based, human; settings: 10 μM resveratrol
Experimental: HepG2 cells were also permanently transfected with 474-luciferase using a co-transfection method. Hep G2 cells are grown in MEM (Gibco) and 10% fetal calf serum (Gibco) and then co-transfected with 474-Luc along with another plasmid that carries neomycin resistance.
(§1) Cells were transfected with Luciferase plasmid of interest (see above) and left to recover overnight in serum poor media. These cells or those that were permanently transfected with the luciferase promoter were then treated with varying concentrations of resveratrol for stated periods of time. As above, RSV-beta-Gal was co-transfected as a control to normalize for DNA uptake. Cells were then harvested and suspended in reporter lysis buffer (Promega). A 10 μl aliquot of this lysate was used for determination of luciferase activity, and 5 μl were used for total protein determination (Bradford Assay, Bio-Rad reagent). Luciferase activity was then determined and expressed relative to the protein concentration of that sample.
To assay for promoter activity in Hep G2 cells, the reporter construct pA1.474-Luc was inserted into the human hepatoma, Hep G2, cells along with pRSV-β-galactosidase as a monitor for transfection efficiency using conventional molecular biology techniques as later described. The transfected cells were exposed to varying concentrations of resveratrol from 0 to 100 μM for 16 hours. […]

APO A1 promoter [2] = test: APO A1 promoter activity, pA1.474-Luc reporter transiently transfected in Hep G2 cells; format: cell-based, human
Experimental: (§2) The plasmids created for the studies contained the human APO A1 promoter from −474, −375, −325, −235, −190 to −170 fused to the firefly luciferase gene in the vector, pGL3 (Promega). Insertion of the promoter DNA was verified by nucleotide sequence analysis. Plasmid DNA was prepared from bacteria containing the desired clone and isolated using Qiagen kits according to manufacturer's instructions and used in the tansfection studies or to create a stable cell line.
(§3) The CaCo2 or HepG2 cells were grown in the defined media and, for promoter assay studies, transfected with the reporter construct of interest. Cells were then left in serum-free media for 8-12 hours after which time resveratrol was added to media to give a final concentration of the agent as stated in the figure legends. The cells were exposed to the agent for varying periods of time, harvested and then the parameter of interest, either APO A1 protein or promoter activity, was assayed.
(§4) For transient transfections cells were seeded onto six well plates and grown to 30-40% confluence, The cells were then transfected using 5 μl of Superfect (Qiagen) and up to one microgram of the plasmid of interest in 100 μl of serum and antibiotic free MEM. The solution was incubated for 10 minutes at room temperature. Media was then removed from the cells to be transfected and 1 ml of media was added to the DNA-Superfect mixture before being applied to the cells. The cells were then exposed to the DNA for 2 hours at 37° C./5% CO2 and then the media containing DNA was removed and replaced with serum free MEM media allowed to grow over night prior to harvest.
Cells were transfected with Luciferase plasmid of interest (see above) and left to recover overnight in serum poor media. These cells or those that were permanently transfected with the luciferase promoter were then treated with varying concentrations of resveratrol for stated periods of time. As above, RSV-beta-Gal was co-transfected as a control to normalize for DNA uptake. […] Luciferase activity was then determined and expressed relative to the protein concentration of that sample. […]

APO A1 protein [3] = test: Western blot of APO A1 protein in spent media from Hep G2 cells; format: cell-based, human; settings: 5 or 10 p,M, 36 hours
Experimental: (§5) Media or cells were harvested from untreated and treated HepG2/CaCo2 culture dishes at various time points and stored at −80° C. when required. For experiments in which media was collected for western blotting, cells from these dishes were trypsinized (Gibco) and a 100 μl sample of cells was used to determine the percentage of dead cells by counting live/dead cell ratios using […] staining. The remaining cells were then assessed for total DNA content using method described by Maniatis, (Cloning Manual). DNA content per dish was then utilized along with ratio of live/dead cells to normalize the amount of media to be separated by polyacrylamide gel electrophoresis. For experiments requiring western blot of whole cell lysates, cells were harvested and lysed using reporter lysis reagent (Promega) and cell debris was spun down at 13,000 rpm for 5 minutes. An aliquot of the supernatant was then used to determine amount of protein per samples were using Bradford assay (Rio-Rad reagent). Equal amounts of protein from all samples were then separated by polyacrylamide gel electrophoresis as was done with media. […]
To measure whether resveratrol stimulation of the APO A1 promoter in the Hep G2 cells also increases the abundance of the protein, APO A1 secreted into the media was assessed following treatment with the compound. […]

APO A1 promoter [4] = test: APO A1 promoter deletion constructs fused to Luc, transient transfection in CaCo2 cells; format: cell-based, human; settings: 5 μM, minimum of 16 hours
Experimental: as §2, §4, §1
In order to identify the potential motif(s), separate constructs containing progressively smaller amounts of APO A1 DNA were fused to the Luc gene. The activity of each construct was tested by transient transfection assay in CaCo2 cells and than treated with 5 μM resveratrol for a minimum of 16 hours. […] The number at the bottom of each set of columns denotes the 5′ location of the fragment and the 3′ end is common to all deletional clones at −7. […] In contrast, further deletion with the remaining −170 to −7 fragment of the promoted abolished the resveratrol induction of the promoter. We discovered the resveratrol responsive motif in the APO A1 DNA must span nucleotides −190 to −170.

APO A1 protein [5] = test: Immunofluorescence staining of APO A1 protein in CaCo2 cells; format: cell-based, human; settings: 5 and 10 μM, 36 hours of treatment
Experimental: (§6) Human hepatoblastoma cells (HepG2) and intestinal cells (CaCo2) were obtained from the American Type Culture Collection (Rockville, Md.). Cells were grown in Minimum Essential Medium (MEM) (Gibco) supplemented with 2 mM glutamine, MEM vitamin solution and 10% fetal bovine serum (FBS) for HepG2 and 20% FBS (Gibco) for CaCo2 cells. All cells were incubated in a 95% air/5% CO2 atmosphere.
as §3
HepG2 and CaCo2 cells were grown on cover slips. Cover slips on which CaCo2 cells were grown were also coated with fibronectin (Calbiochem). […] The FITC-labeled ApoA1 peptide in cells was visualized using a Zeiss fluorescence microscope (Zeiss, Dusseldorf, Germany) with FITC excitation and emission wavelengths of 488 and 520 nm. […]

APO A1 protein [6] = test: Immunofluorescence staining of APO A1 protein in Hep G2 cells; format: cell-based, human; settings: 5 or 10 μM
Experimental: as §6
The CaCo2 or HepG2 cells were grown in the defined media and, for promoter assay studies, transfected with the reporter construct of interest. Cells were then left in serum-free media for 8-12 hours after which time resveratrol was added to media to give a final concentration of the agent as stated in the figure legends. […]
HepG2 and CaCo2 cells were grown on cover slips. […] The FITC-labeled ApoA1 peptide in cells was visualized using a Zeiss fluorescence microscope (Zeiss, Dusseldorf, Germany) with FITC excitation and emission wavelengths of 488 and 520 nm. […]
Since the APO A1 gene is expressed in both liver and small intestine, the following studies examine the ability of resveratrol to affect expression of the gene in liver cells. […] Hep G2 cells were viewed under phase contrast or fluorescence microscopy following treatment with or without resveratrol and immunostaining for their content of APO A1 protein.

[7] = test system: human APO A1 promoter from −474 to −7; test: APO A1 promoter activity, pA1.474-Luc reporter transiently transfected in CaCo2 cells; format: cell-based
Experimental: as §2, §3, §4
Cells were transfected with Luciferase plasmid of interest (see above) and left to recover overnight in serum poor media. […] Luciferase activity was then determined and expressed relative to the protein concentration of that sample.
Next the CaCo2 cells were exposed to varying concentrations of resveratrol from 0 to 15 μM. […] At the end of the treatment, the cells were harvested and the Luc-activity measured. […]

APO A1 protein [8] = test: Western blot of APO A1 protein in spent media from CaCo2 cells; format: cell-based, human; settings: 5 or 10 p,M, 36 hours
Experimental: as §5, with “minutes.” for “minutes. An aliquot of the supernatant was then used to determine amount of protein per samples were using Bradford assay (Rio-Rad reagent). Equal amounts of protein from all samples were then separated by polyacrylamide gel electrophoresis as was done with media.”
This to experiment sought to measure whether resveratrol stimulation of transcriptional activity of the promoter in the CaCo2 cells increased the abundance of the APO A1 protein, ultimately responsible for the antiatherogenic activity of the gene. […] Longer exposure of the cells to resveratrol was utilized to allow adequate time for the APO A1 protein to be secreted into the media from the CaCo2 cells, and detected. […]

In the case of `Oc1ccc(/C=C/c2cc(O)cc(O)c2)cc1` [resveratrol, trans-3,5,4′-trihydroxystilbene], the “maximal increase of Luc-activity” value (APO A1 promoter [1]) is reported as 4 fold, the “concentration at which resveratrol becomes inhibitory on APO A1 promoter activity” value (APO A1 promoter [2]; 16 hours) is reported as no less than 50 µM and the “increase in Luc-activity (APO A1 promoter)” value (APO A1 promoter [2]; 16 hours, 5 to 10 μM resveratrol) is reported as 3 fold. For the same molecule, the “decrease in Luc-activity” value (APO A1 promoter [2]; 16 hours, 15, 25, 50, 75 or 100 μM) was 50%, the “abundance of APO A1 protein in spent media (western blot)” value (APO A1 protein [3]) was “marked increase” and the “increase in promoter activity, −190 to −7 fragment” value (APO A1 promoter [4]) was 2.5 fold. For the same molecule, the “increase in promoter activity, −235 to −7 fragment” value (APO A1 promoter [4]) was 2.5 fold, the “induction of promoter activity, full-length (−474 to −7) promoter” value (APO A1 promoter [4]) was 2.5 fold and the “induction of promoter, −170 to −7 fragment” value (APO A1 promoter [4]) was “abolished”. The “abundance of APO A1 signal (immunohistochemical staining)” value (APO A1 protein [5]) was “increase in the abundance of APO A1 signal”, the “fluorescence for APO A1 signal (immunostaining)” value (APO A1 protein [6]) was “increase in fluorescence” and the “optimal time point for stimulatory effect on APO A1 promoter” value ([7]; 5 μM, time points 4 to 24 hours) was “around 16 hours”. The “maximal stimulation of APO A1 promoter activity (Luc-activity)” value ([7]; 16 hours, resveratrol 5 to 7.5 μM) was 2.5 fold, the “resveratrol concentration causing maximal stimulation of APO A1 promoter activity” value ([7]; 16 hours, tested 0 to 15 μM) was 5 to 7.5 µM and the “abundance of APO A1 protein in spent media (western blot)” value (APO A1 protein [8]) was “marked increase”.
